Tests used:
Experiment in all cases: relative viability (nuclei count vs DMSO), 5 days (fraction); higher = more cells survive
Trametinib + Decitabine = compound: CC(=O)Nc1cccc(-n2c(=O)n(C3CC3)c(=O)c3c(Nc4ccc(I)cc4F)n(C)c(=O)c(C)c32)c1 [Trametinib] + Nc1ncn([C@H]2C[C@H](O)[C@@H](CO)O2)c(=O)n1 [Decitabine] (partner 2 µM)
Procedure, shortened: (§1)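 Lung cancer cell lines were pin-tool dosed in 1536-well plates on the day after seeding, with either a lone drug or a fixed anchor-drug dose plus five library-drug doses (not always all listed) in √10 steps. Nuclei were counted on 4× images after 5 days. Relative viability is the ratio of treated-well to vehicle-well nuclei counts, with each value a median of duplicate plates.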

Trametinib + Dasatinib = compound: CC(=O)Nc1cccc(-n2c(=O)n(C3CC3)c(=O)c3c(Nc4ccc(I)cc4F)n(C)c(=O)c(C)c32)c1 [Trametinib] + Cc1nc(Nc2ncc(C(=O)Nc3c(C)cccc3Cl)s2)cc(N2CCN(CCO)CC2)n1 [Dasatinib] (partner 0.075 µM)
Procedure, shortened: as §1

Trametinib + Lapatinib = compound: CC(=O)Nc1cccc(-n2c(=O)n(C3CC3)c(=O)c3c(Nc4ccc(I)cc4F)n(C)c(=O)c(C)c32)c1 [Trametinib] + CS(=O)(=O)CCNCc1ccc(-c2ccc3ncnc(Nc4ccc(OCc5cccc(F)c5)c(Cl)c4)c3c2)o1 [Lapatinib] (partner 2 µM)
Procedure, shortened: as §1

[1] = compound: CN1C=C(C2=CC=CC=C21)/C=C\3/C4=C(C=CC=N4)NC3=O + CC(=O)Nc1cccc(-n2c(=O)n(C3CC3)c(=O)c3c(Nc4ccc(I)cc4F)n(C)c(=O)c(C)c32)c1 [Trametinib] (partner 0.02 µM)
Procedure, shortened: as §1

| Cell Line | relative viability (Trametinib + Decitabine; first compound 0.0025 µM) | relative viability (Trametinib + Decitabine; first compound 0.007906 µM) | relative viability (Trametinib + Decitabine; first compound 0.025 µM) | relative viability (Trametinib + Decitabine; first compound 0.07906 µM) | relative viability (Trametinib + Decitabine; first compound 0.25 µM) | relative viability (Trametinib + Dasatinib; first compound 0.0025 µM) | relative viability (Trametinib + Dasatinib; first compound 0.007906 µM) | relative viability (Trametinib + Dasatinib; first compound 0.025 µM) | relative viability (Trametinib + Dasatinib; first compound 0.07906 µM) | relative viability (Trametinib + Dasatinib; first compound 0.25 µM) | relative viability (Trametinib + Lapatinib; first compound 0.0025 µM) | relative viability (Trametinib + Lapatinib; first compound 0.007906 µM) | relative viability (Trametinib + Lapatinib; first compound 0.025 µM) | relative viability (Trametinib + Lapatinib; first compound 0.07906 µM) | relative viability (Trametinib + Lapatinib; first compound 0.25 µM) | relative viability ([1]; first compound 0.02 µM) | relative viability ([1]; first compound 0.06325 µM) | relative viability ([1]; first compound 0.2 µM) | relative viability ([1]; first compound 0.6325 µM) | relative viability ([1]; first compound 2 µM) |
| --- | --- | --- | --- | --- | --- | --- | --- | --- | --- | --- | --- | --- | --- | --- | --- | --- | --- | --- | --- | --- |
| NCI-H23 | 0.291 | 0.297 | 0.281 | 0.269 | 0.258 | 0.544 | 0.74 | 0.293 | 0.231 | 0.172 | 0.872 | 0.74 | 0.335 | 0.529 | 0.211 | 0.346 | 0.332 | 0.301 | 0.287 | 0.443 |
| HCC-366 | 0.29 | 0.307 | 0.276 | 0.273 | 0.206 | 0.47 | 0.416 | 0.32 | 0.227 | 0.196 | 0.88 | 0.938 | 0.614 | 0.58 | 0.161 | 0.279 | 0.316 | 0.307 | 0.291 | 0.318 |
| LCLC-97TM1 | 0.275 | 0.287 | 0.206 | 0.203 | 0.169 | 0.816 | 0.44 | 0.381 | 0.125 | 0.171 | 0.666 | 0.944 | 0.666 | 0.3 | 0.138 | – | 0.19 | 0.189 | 0.198 | 0.19 |
| EMC-BAC-2 | 0.974 | 0.95 | 0.827 | – | 0.5 | 0.352 | 0.407 | 0.419 | 0.443 | 0.365 | 0.866 | 0.872 | 0.711 | 0.92 | 0.626 | 0.926 | 0.872 | 0.892 | 0.927 | 0.956 |
| HOP-62 | 0.199 | 0.229 | 0.252 | 0.235 | 0.227 | 0.681 | 0.43 | 0.249 | 0.206 | 0.212 | 0.949 | 0.903 | 0.387 | 0.39 | 0.104 | 0.424 | 0.415 | – | 0.354 | 0.325 |
| NCI-H1793 | 0.458 | 0.4 | 0.447 | 0.334 | 0.228 | 0.26 | 0.25 | 0.244 | 0.212 | 0.242 | 0.478 | 0.531 | 0.397 | 0.395 | 0.352 | 0.526 | 0.611 | 0.396 | 0.441 | 0.387 |
| NCI-H1355 | 0.346 | 0.353 | 0.309 | 0.347 | 0.34 | 0.607 | 0.528 | 0.337 | 0.373 | 0.326 | 0.838 | 0.767 | 0.369 | 0.532 | 0.4 | 0.336 | 0.361 | 0.423 | 0.274 | 0.3 |
| COR-L23 | 0.428 | 0.435 | 0.329 | 0.372 | 0.293 | 0.446 | 0.449 | 0.502 | 0.484 | 0.246 | 1.04 | 0.923 | 0.786 | 0.788 | 0.48 | 0.519 | 0.575 | 0.576 | 0.545 | 0.606 |
| A-427 | 0.522 | 0.585 | 0.541 | 0.525 | 0.418 | 0.75 | 0.397 | 0.178 | 0.262 | 0.171 | 1.1 | 1.05 | 0.619 | 0.818 | 0.678 | 0.796 | 0.721 | – | 0.708 | 0.813 |
| NCI-H520 | 0.445 | 0.504 | 0.535 | 0.502 | 0.473 | 0.281 | 0.225 | 0.288 | 0.282 | 0.176 | 0.855 | 0.912 | 0.756 | 0.68 | 0.428 | 0.542 | 0.589 | 0.621 | 0.716 | 0.68 |
| LXF-289 | 0.399 | 0.408 | 0.385 | 0.319 | 0.391 | 0.192 | 0.305 | 0.299 | 0.28 | 0.0945 | 0.863 | 0.759 | 0.677 | 0.615 | 0.57 | 0.677 | 0.679 | 0.739 | 0.717 | 0.72 |
| NCI-H2087 | 0.207 | 0.203 | 0.148 | 0.117 | 0.125 | 0.366 | 0.236 | 0.117 | 0.127 | 0.156 | 1.1 | 0.665 | 0.496 | 0.254 | 0.18 | 0.149 | 0.208 | 0.153 | 0.189 | 0.215 |
| NCI-H596 | 0.967 | 0.96 | 0.952 | 0.968 | 0.739 | 0.533 | 0.535 | 0.495 | 0.487 | 0.303 | 0.918 | 0.817 | 0.807 | 0.833 | 0.412 | 0.741 | 0.781 | 0.755 | 0.744 | 0.867 |
| PC-14 | 0.229 | 0.184 | 0.286 | 0.145 | 0.125 | 0.265 | 0.234 | 0.266 | 0.13 | 0.0632 | 0.27 | 0.194 | 0.182 | 0.192 | 0.192 | 0.713 | 0.69 | 0.692 | 0.747 | 0.78 |
| NCI-H1915 | 0.268 | 0.248 | 0.24 | 0.227 | 0.188 | 0.273 | 0.203 | 0.196 | 0.109 | 0.0747 | 1.01 | 0.929 | 0.873 | 0.538 | 0.253 | 0.3 | 0.32 | 0.293 | 0.303 | 0.285 |
| NCI-H647 | 0.39 | 0.349 | 0.377 | 0.344 | 0.19 | 0.169 | 0.22 | 0.184 | 0.107 | 0.0699 | 1.03 | 0.936 | 0.759 | 0.683 | 0.231 | 0.532 | 0.404 | 0.41 | 0.38 | 0.404 |

From the supplement of paper PMC10307832
